Assay results from ChEMBL document CHEMBL3044966, “Photosynthesis limitations of grapevine after treatment with the fungicide fludioxonil” (J Agric Food Chem, 2008).

Tests used:
Vitis vinifera [1] = experiment: Increase in […] CO2 level in Vitis vinifera cv. Pinot noir at 30 mM measured 7 days post compound application; assay type: ADME, organism-based; settings: in vivo, 168 h, 30000 µM
Vitis vinifera [2] = experiment: Inhibition of photosynthesis in Vitis vinifera cv. Pinot noir assessed as apparent quantum yield of CO2 fixation at 1.2 mM measured 7 days post compound application (reference value: 0.07 +/- 0.01 no unit) umol/m2/s); assay type: organism-based; settings: in vivo, 168 h, 1200 µM
Vitis vinifera [3] = experiment: Increase in […] CO2 level in Vitis vinifera cv. Pinot noir at 6 mM measured 7 days post compound application; assay type: ADME, organism-based; settings: in vivo, 168 h, 6000 µM
Vitis vinifera [4] = experiment: Inhibition of photosynthesis in Vitis vinifera cv. Pinot noir assessed as increase in CO2 compensation point at 30 mM measured 7 days post compound application relative to untreated control; assay type: organism-based; settings: in vivo, 168 h, 30000 µM
Vitis vinifera [5] = experiment: Toxicity in Vitis vinifera cv. Pinot noir assessed as effect on gas exchanges at 1.2 to 30 mM measured 10 days post compound application; assay type: organism-based; settings: in vivo, 240 h, 30000 µM
photosystem 2 [6] = experiment: Inhibition of photosynthesis in Vitis vinifera cv. Pinot noir assessed as reduction in relative quantum yield of photo system 2 at 1.2 mM measured 7 days post compound application relative to untreated control; assay type: organism-based; settings: in vivo
Vitis vinifera [7] = experiment: Inhibition of photosynthesis in Vitis vinifera cv. Pinot noir assessed as reduction in net photosynthetic rate at 30 mM measured 1 day post compound application; assay type: organism-based; settings: in vivo, 24 h, 30000 µM
[8] = Inhibition of photosynthesis in Vitis vinifera cv. Pinot noir assessed as reduction in apparent quantum yield of CO2 fixation at 1.2 to 30 mM measured 7 days post compound application; assay type: organism-based; settings: in vivo
Vitis vinifera [9] = experiment: Effect on maximum efficiency of PSII photochemistry after dark-adaptation in Vitis vinifera cv. Pinot noir at 1.2 to 30 mM measured 7 days post compound application; assay type: ADME, organism-based; settings: in vivo, 168 h, 30000 µM
[10] = Inhibition of photosynthesis in Vitis vinifera cv. Pinot noir assessed as reduction in Hill reaction activity 6 mM measured 7 days post compound application relative to untreated control; assay type: organism-based; settings: in vivo
[11] = Inhibition of photosynthesis in Vitis vinifera cv. Pinot noir assessed as reduction in net photosynthetic rate at 6 mM measured 7 days post compound application; assay type: organism-based; settings: in vivo
[12] = Inhibition of photosynthesis in Vitis vinifera cv. Pinot noir assessed as reduction in dark respiration at 1.2 mM measured 7 days post compound application; assay type: organism-based; settings: in vivo
Vitis vinifera [13] = experiment: Toxicity in Vitis vinifera cv. Pinot noir assessed as effect on gas exchanges at 1.2 to 30 mM measured 14 days post compound application; assay type: organism-based; settings: in vivo, 336 h, 30000 µM
Vitis vinifera [14] = experiment: Inhibition of photosynthesis in Vitis vinifera cv. Pinot noir assessed as increase in ratio of apparent quantum yield of photo system 2 to apparent quantum yield yield of CO2 fixation at 1.2 to 30 mM measured 7 days post compound application; assay type: organism-based; parameters: scale not given: the % may be the effect or the level left; settings: in vivo, 168 h, 30000 µM
Vitis vinifera [15] = experiment: Inhibition of photosynthesis in Vitis vinifera cv. Pinot noir assessed as PPFD-saturated net CO2 assimilation rate at 6 mM measured 7 days post compound application (reference value: 8.9 +/- 1.5 umol/m2/s); assay type: organism-based; settings: in vivo, 168 h, 6000 µM
Vitis vinifera [16] = experiment: Effect on stomatal conductance in Vitis vinifera cv. Pinot noir at 1.2 to 30 mM measured 7 days post compound application; assay type: ADME, organism-based; settings: in vivo, 168 h, 30000 µM
photosystem 2 [17] = experiment: Inhibition of photosynthesis in Vitis vinifera cv. Pinot noir assessed as reduction in relative quantum yield of photo system 2 at 6 mM measured 7 days post compound application relative to untreated control; assay type: organism-based; settings: in vivo
Vitis vinifera [18] = experiment: Inhibition of photosynthesis in Vitis vinifera cv. Pinot noir assessed as mitochondrial respiration in the light at 30 mM measured 7 days post compound application (reference value: 3.2 +/- 0.5 umol/m2/s); assay type: organism-based; settings: in vivo, 168 h, 30000 µM
Vitis vinifera [19] = experiment: Inhibition of photosynthesis in Vitis vinifera cv. Pinot noir assessed as light compensation point at 6 mM measured 7 days post compound application (reference value: 22.6 +/- 3.1 umol/mol); assay type: organism-based; settings: in vivo, 168 h, 6000 µM
Vitis vinifera [20] = experiment: Increase in […] CO2 level in Vitis vinifera cv. Pinot noir at 1.2 mM measured 7 days post compound application; assay type: ADME, organism-based; settings: in vivo, 168 h, 1200 µM
Vitis vinifera [21] = experiment: Inhibition of photosynthesis in Vitis vinifera cv. Pinot noir assessed as mitochondrial respiration in the light at 6 mM measured 7 days post compound application (reference value: 3.2 +/- 0.5 umol/m2/s); assay type: organism-based; settings: in vivo, 168 h, 6000 µM
Vitis vinifera [22] = experiment: Inhibition of photosynthesis in Vitis vinifera cv. Pinot noir assessed as apparent quantum yield of CO2 fixation at 30 mM measured 7 days post compound application (reference value: 0.07 +/- 0.01 no unit) umol/m2/s); assay type: organism-based; settings: in vivo, 168 h, 30000 µM
Vitis vinifera [23] = experiment: Effect on net photosynthetic rate in Vitis vinifera cv. Pinot noir at 1.2 to 30 mM measured 2 to 4 days post compound application; assay type: ADME, organism-based; settings: in vivo, 30000 µM
photosystem 2 [24] = experiment: Inhibition of photosynthesis in Vitis vinifera cv. Pinot noir assessed as reduction in relative quantum yield of photo system 2 at 30 mM measured 7 days post compound application relative to untreated control; assay type: organism-based; settings: in vivo
[25] = Inhibition of photosynthesis in Vitis vinifera cv. Pinot noir assessed as reduction in net photosynthetic rate at 1.2 mM measured 1 day post compound application; assay type: organism-based; settings: in vivo
Vitis vinifera [26] = experiment: Inhibition of photosynthesis in Vitis vinifera cv. Pinot noir assessed as in vivo maximum rate of rubisco carboxylation at 1.2 mM measured 7 days post compound application (reference value: 42.8 +/- 3.2 umol/m2/s); assay type: organism-based; settings: 168 h, 1200 µM
Vitis vinifera [27] = experiment: Inhibition of photosynthesis in Vitis vinifera cv. Pinot noir assessed as ratio of apparent quantum yield of photo system 2 to apparent quantum yield yield of CO2 fixation at 6 mM measured 7 days post compound application (reference value: 10 +/- 1.7 no unit); assay type: organism-based; settings: in vivo, 168 h, 6000 µM

Molecule `N#Cc1c[nH]cc1-c1cccc2c1OC(F)(F)O2` [FLUDIOXONIL] has an Activity (Vitis vinifera [1]) of 20%, an Activity (Vitis vinifera [2]) of 0.01 and an Activity (Vitis vinifera [3]) of 20%. The “fold change (FC)” value (Vitis vinifera [4]) was 3.3, the Activity (Vitis vinifera [5]) was “Non-toxic” and the inhibition at 168 h, 1200 µM (photosystem 2 [6]) was 10%. For the same molecule, the Activity (Vitis vinifera [7]) was “Toxic”, the inhibition at 168 h, up to 30000 µM [8] was 30% and the Activity (Vitis vinifera [9]) was “Non-toxic”. For the same molecule, the inhibition at 168 h, 6000 µM [10] was 36%, the inhibition at 168 h, 6000 µM [11] was 65% and the inhibition at 168 h, 1200 µM [12] was 30%. For the same molecule, the Activity (Vitis vinifera [13]) was “Non-toxic”, the Activity (Vitis vinifera [14]) was 50% and the Activity (Vitis vinifera [15]) was 7.6 micromol/m2/s. The Activity (Vitis vinifera [16]) was “Non-toxic”, the inhibition at 168 h, 6000 µM (photosystem 2 [17]) was 7% and the Activity (Vitis vinifera [18]) was 12.6 micromol/m2/s. The Activity (Vitis vinifera [19]) was 27.7 umol/mol, the Activity (Vitis vinifera [20]) was 13% and the Activity (Vitis vinifera [21]) was 3.6 micromol/m2/s. For the same molecule, the Activity (Vitis vinifera [22]) was 0.04, the Activity (Vitis vinifera [23]) was “Non-toxic” and the inhibition at 168 h, 30000 µM (photosystem 2 [24]) was 10%. The inhibition at 24 h, 1200 µM [25] was 30%, the Activity (Vitis vinifera [26]) was 38 micromol/m2/s and the Ratio (Vitis vinifera [27]) was 16.3.
